The text below walks through data of patent US8410081B2, “Treatment of cystic fibrosis” (Academisch Medisch Centrum, priority 2006, dated 2013).

The structures appear in SMILES notation.

Experiment [1] deals with T1, glucosylceramide synthase (GCS) (Homo sapiens, UniProt Q16739).
T1 sequence (Q16739 1-394): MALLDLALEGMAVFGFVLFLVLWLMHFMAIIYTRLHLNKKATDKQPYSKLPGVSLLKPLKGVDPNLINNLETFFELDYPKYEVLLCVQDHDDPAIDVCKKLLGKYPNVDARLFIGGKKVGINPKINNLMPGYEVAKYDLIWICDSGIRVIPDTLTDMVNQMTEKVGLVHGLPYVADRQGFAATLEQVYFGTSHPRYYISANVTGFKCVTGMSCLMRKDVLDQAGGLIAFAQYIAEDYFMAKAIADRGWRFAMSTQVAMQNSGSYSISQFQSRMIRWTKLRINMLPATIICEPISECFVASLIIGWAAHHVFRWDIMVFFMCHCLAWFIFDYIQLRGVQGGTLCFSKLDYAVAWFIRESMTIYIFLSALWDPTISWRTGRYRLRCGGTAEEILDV
The experiment is described as follows: glucosylceramide synthase (GCS) IC50 determination. It counts as biochemical. The conditions noted are these: for IC50: enzyme preparations exposed to dilutions of inhibitor.

Experiment [2] addresses T2, GBA2 (non-lysosomal glucosylceramidase) (Homo sapiens, UniProt Q9HCG7).
T2 construct: host or cells: GBA2 containing membranes
T2 sequence (Q9HCG7 1-927): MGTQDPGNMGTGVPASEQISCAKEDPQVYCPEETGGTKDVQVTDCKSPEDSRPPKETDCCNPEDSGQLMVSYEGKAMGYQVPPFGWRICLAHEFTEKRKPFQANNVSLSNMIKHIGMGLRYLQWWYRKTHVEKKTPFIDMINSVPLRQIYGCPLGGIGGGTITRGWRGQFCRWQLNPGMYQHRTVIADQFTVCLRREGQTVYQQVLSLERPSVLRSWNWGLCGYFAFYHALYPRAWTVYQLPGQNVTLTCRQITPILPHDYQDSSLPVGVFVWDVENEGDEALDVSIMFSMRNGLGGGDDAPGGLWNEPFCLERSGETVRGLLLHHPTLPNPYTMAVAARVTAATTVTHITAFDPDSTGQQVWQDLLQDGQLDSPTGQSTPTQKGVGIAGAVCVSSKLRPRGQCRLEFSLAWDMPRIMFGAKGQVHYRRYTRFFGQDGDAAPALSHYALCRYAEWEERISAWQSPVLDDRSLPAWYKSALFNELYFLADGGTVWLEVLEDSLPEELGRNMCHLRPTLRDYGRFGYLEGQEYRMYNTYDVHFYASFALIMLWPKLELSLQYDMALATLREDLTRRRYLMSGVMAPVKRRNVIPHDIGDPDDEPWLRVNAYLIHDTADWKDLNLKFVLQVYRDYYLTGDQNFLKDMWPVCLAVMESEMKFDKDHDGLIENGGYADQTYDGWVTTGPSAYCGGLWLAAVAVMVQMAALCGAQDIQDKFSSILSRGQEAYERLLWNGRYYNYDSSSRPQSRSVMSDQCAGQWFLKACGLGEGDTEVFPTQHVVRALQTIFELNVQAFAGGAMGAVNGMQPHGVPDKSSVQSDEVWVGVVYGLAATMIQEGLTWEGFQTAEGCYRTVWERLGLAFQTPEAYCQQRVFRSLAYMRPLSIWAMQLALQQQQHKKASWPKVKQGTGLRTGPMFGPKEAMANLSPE
Kind of experiment: non-lysosomal glucosylceramidase (GBA2) IC50 determination. Type of experiment: biochemical. Conditions: enzyme preparations exposed to dilutions of inhibitor.

Experiment [3] has as its system delF508-CFTR containing epithelial CF cells (CF15). The experiment is described as follows: cAMP-activated chloride current, perforated whole-cell patch-clamp / iodide efflux in CF15 cells. It counts as cell-based, human. Conditions: 10 nM; del F508-CFTR containing epithelial CF cells. An excerpt: The effects of AMP-DNM on cAMP-activated chloride current in delF508-CFTR containing epithelial CF cells were studied with the following assay:
Perforated whole-cell patch-clamp analysis was applied to CF15 cells (human nasal epithelial cell line obtained from delF508 homozygous patient). Patch electrodes (GC150-TF10, Harvard Apparatus, USA) filled with intracellular solution (resistances of 3-4 MΩ) were connected to the RK-400 amplifier (Biologic, France) through an Ag/AgCl pellet. External solution (mM): 145 NaCl, 4 CsCl, 1 MgCl2, 1 CaCl2, 5 d-glucose, 10 TES (pH 7.4, 315 mOsm). Intra-pipette solution (mM): 113 l-aspartic acid, 113 CsOH, 27 CsCl, 1 NaCl, 1 EGTA, 1 MgCl2, 3 Mg-ATP (ex-temporane), 10 TES (pH 7.2 with CsOH, 285 mOsm) and amphotericin B (100 μg/ml) renewed every 2 h. Only cells with input resistance […] were analysed. The mean access resistance and whole cell capacitance were 12±0.6 MΩ and 35±4.3 pF (n=44). Currents were obtained in response to voltage steps from −80 to +80 mV in 20 mV increment. Data were collected using pClamp 6.0.3 package software (Axon Instruments, USA). CFTR Cl^− channel activity was assayed on a cell population by the iodide (^125I) efflux technique.
In general terms: In patch-clamp work, channel activity is measured electrically.

In experiment [4] the test system is delF508-CFTR in ileal mucosa. Kind of experiment: intestine explants from ileal mucosa of delF508 mice (short-circuit current, Western blot, immunohistochemistry). The conditions noted are these: 10 nM. The protocol: To test the therapeutic potential of GBA2 inhibitors for CF further the effects of AMP-DNM on intestine explants from ileal mucosa of delF508 mice were analysed. The following assay was used:
Rotterdam delF508/delF508-CFTR mice (Cfr^tm1 Eur), their littermate controls (FVB inbred, 14-17 weeks old, weight between 20 and 30 g, kept on solid food in a pathogen-free environment) and Cftr-KO mice (Cftr^tm2 Cam) were used. Muscle-stripped ileal mucosa was incubated in William's E-Glutamax medium supplemented with insulin (10 μg/ml) and dexamethasone (20 μg/ml). At different time points, the compound was removed by repeated washings followed by short-circuit current (Isc) measurements in mini-Ussing chambers. Western blotting was as performed and immunoblots were probed with monoclonal mouse anti-CFTR antibody (10 μg/ml, IgG1 M3A7, Chemicon, USA). The protein levels were expressed as densitometry and percentage of controls. For immunohistochemistry, tissues were fixed in 4% (wt/vol) paraformaldehyde. Sections (5 μm) were stained with the antibody R3195 (1:500).
A general note: A western blot detects proteins with antibodies after separation by electrophoresis.

Broadly, the IC50 is the concentration that gives 50% inhibition. Low values mean inhibition by little substance, high ones a need for much substance. For `OC[C@@H]1[C@@H](O)[C@H](O)[C@@H](O)CN1CCCCCCC12CC3CC(CC(C3)C1)C2` [N-[6′-adamantyl-hexan]-1-deoxynojirimycin], the values for the IC50 in experiment [1] and in experiment [2] were 7.5 µM and 0.001 µM, respectively.

Take `OC[C@@H]1[C@@H](O)[C@H](O)[C@@H](O)CN1CCCCOCC12CC3CC(CC(C3)C1)C2` [N-[5′-(adamantan-1′-yl-methoxy)-butan]-1-deoxynojirimycin]: the IC50 in experiment [1] was determined as 10 µM; in experiment [2] it was 0.002 µM.

In the case of `OC[C@@H]1[C@@H](O)[C@H](O)[C@@H](O)CN1CCCCCOCC12CC3CC(CC(C3)C1)C2` [AMP-DNM, N-[5′-(adamantan-1′-yl-methoxy)-pentan]-1-deoxynojirimycin], the “restoration of cAMP-activated chloride current, % of normal levels” value in experiment [3] is “up to 30%”. Also, the “rescue of delF508-CFTR in intestinal crypts of ileal mucosa” value in experiment [4] was “rescues a mature and functional delF508-CFTR”.

As for `CC(C)(C)COCCCCCN1C[C@H](O)[C@@H](O)[C@H](O)[C@H]1CO` [N-[5′-neopentyloxy-pentan]-1-deoxynojirimycin], in experiment [1], the “inhibition of GCS (in words)” value is “hardly inhibits GCS” and the IC50 was more than 100 µM.
